Experimental data as given in article PMC8896685 (PLoS ONE, 2022).
Numbered stars: 1 amine (or outer) side, 2 acyl side, 3 side chain; on linkers, the order of the positions; unused ones are H or OH. Square brackets hold non-standard residues; d marks the D form. Side chains are listed from the residue outwards. Peptide text beside a SMILES is read from it. * marks the point of attachment. C18 diacid = O=C(O)CCCCCCCCCCCCCCCCC(=O)*; γGlu = O=C(O)[C@H](CCC(=O)[*:2])N[*:1]; Desaminohistidyl = O=C(CCc1c[nH]cn1)*; Ac4c = NC1(C(=O)O)CCC1; AEEA = NCCOCCOCC(=O)O; Aib = CC(C)(N)C(=O)O

Legend:
DIO mice = assay: Subchronic effect on glucose tolerance in DIO mice (IPGTT at steady state); type: in vivo, mouse
Description: (§1) Compound exposure was measured by Luminescence Oxygen Channeling Immunoassay (LOCI). […] The three reactants were combined with the analyte and formed a two-sited immuno-complex. Illumination of the complex released singlet oxygen […] from the donor beads. They were channeled into the acceptor beads and triggered a chemiluminescence response which was measured in an EnVision plate reader (PerkinElmer). The amount of light was proportional to the concentration of the analyte. As calibrators, a dilution line of the relevant analyte in rat/mouse plasma was included.
Animals were fasted for 5–6 h prior to intraperitoneal (i.p.) injection of 2 g/kg glucose. Blood glucose was analysed on whole blood from the tail vein of conscious animals using a Biosen S-line glucose analyzer (EKF-diagonistic Gmbh, Barleben, Germany) by the glucose oxidase method, at basal and at t = 15, 30, 60, 90, 180 min post glucose administration.
DIO mice received s.c. injections once daily for 4–5 weeks. Animals were dosed at different times of day to allow for assessment of glucose tolerance and other metabolic parameters at same time of day but at different time points in relation to dosing. […] Body composition was assessed in conscious animals by Magnetic Resonance (MR) scanning prior to initiation of treatment and at the end of the treatment period. Steady-state plasma parameters were assessed in non-fasted animals. Additional DIO mice (n = 4) were included for verification of 24-h peptide exposure in steady state. The mice received s.c. doses daily for 2 weeks (13 days) with 3 nmol/kg NN1177; 5 nmol/kg NN1151 or 5 nmol/kg NN1359, where after plasma sampled after t = 5 h (NN1177) or 6 h (NN1151, NN1359), 10 h (all co-agonists) and 24 h (all co-agonists) post-dosing was analysed for exposure.
Analogues were tested for subchronic effect in two different set-ups. […] The Cmax and Cmin animals were included in separate treatment groups and evaluated head-to-head for glucose tolerance and additional metabolic parameters at the end of the treatment period. […] IPGTT was performed as described above, but additionally blood was sampled from vena facialis of conscious animals at t = 210 min relative to the administration of glucose for exposure analysis.
IPGTT was performed as described above.

in vivo = details: rat, iv
Description: as §1
At t=0, 5 min, 10 min, 30 min, 2 h, 4 h, 8 h, 12 h, 24 h, 32 h, 48 h, 56 h, and 72 h post dosing, plasma was sampled from the sublingual plexus for analysis of plasma exposure measured by LOCI.
Plasma concentration-time profiles were analysed using non-compartmental analysis (NCA) using Phoenix WinNonlin Professional 6.3 (Pharsight, Mountain View, CA, US). Calculations were performed using full concentration-time profile values or sparse sampling concentration-time values as appropriate.

Rat GCGR = molecular target: T1, Rat GCGR (Rattus norvegicus, UniProt P30082); assay: Receptor binding, SPA competitive binding assay; details: SPA competitive binding on BHK cell membranes, [125I]-glucagon tracer, 1% species specific plasma, 2 h 30°C; value (95% CI)
T1 construct: a plasmid encoding either the glucagon receptor or the GLP-1 receptor from the relevant species; expressed in transfected cells
Description: (§2) The binding assay was performed on cell membranes in the presence of 1% (v/v) species-specific heparin-treated pooled plasma (Bioreclamation IVT, Westbury, NY) diluted in assay buffer (50 mM HEPES supplemented with 5 mM EGTA, 5 mM MgCl2, and 0.005% (v/v) Tween 20, pH7.4). […] Cells stably expressing an individual receptor of interest were grown at 5% CO2, 37°C in DMEM (supplemented with 10% FCS, 0.5 mg/ml G418 and 0.3 mg/ml hygromycin). Membrane preparations were made from cells harvested at approximately 80% confluence, washed and homogenized in 20 mM HEPES with 0.1 mM EDTA, pH 7.4. Protein concentration was determined, and the membranes were stored at -80°C until use. The membrane binding assay was performed in a 96-well OptiPlate (PerkinElmer) in a total volume of 200 μl. Test compounds were dissolved in 80% DMSO and further diluted in assay buffer. 50 μl of diluted plasma was added to the assay plate wells followed by addition of test compounds (25 μl), cell membranes (50 μl, 0.06 mg/ml), SPA beads (20 mg/ml in assay buffer) and radioligand (60,000 cpm/well, corresponding to 0.06 nM; 2200 Ci/mmol. Each assay plate was incubated for 2 h at 30°C, centrifuged at 1500 rpm for 10 minutes and counted in a TopCount NXT instrument (PerkinElmer).
(§3) For the receptor binding assays, logIC50 values were calculated using non-linear regression analysis. The error estimation was reported as the 95% confidence interval. […] The calculations were performed in GraphPad Prism 6.4 (GraphPad, San Diego, CA) and error estimation was expressed as the 95% confidence interval. […] Averages, error estimation, ratios and plasma shifts were all calculated on logIC50 or logEC50 values and transformed to the anti-log values for reporting purposes.

Human GCGR = molecular target: T2, Human GCGR (Homo sapiens, UniProt P47871); assay: Receptor binding, SPA competitive binding assay; details: SPA competitive binding on BHK cell membranes, [125I]-glucagon tracer, 1% species specific plasma, 2 h 30°C; value (95% CI)
T2 construct: a plasmid encoding either the glucagon receptor or the GLP-1 receptor from the relevant species; expressed in transfected cells
Description: as §2, §3

Rat GLP-1R = molecular target: T3, Rat GLP-1R (Rattus norvegicus, UniProt P32301); assay: Receptor binding, SPA competitive binding assay; details: SPA competitive binding on BHK cell membranes, [125I]-GLP-1(7–36)-NH2 tracer, 1% species specific plasma, 2 h 30°C; value (95% CI)
T3 construct: a plasmid encoding either the glucagon receptor or the GLP-1 receptor from the relevant species; expressed in transfected cells
T3 sequence (P32301 22-463): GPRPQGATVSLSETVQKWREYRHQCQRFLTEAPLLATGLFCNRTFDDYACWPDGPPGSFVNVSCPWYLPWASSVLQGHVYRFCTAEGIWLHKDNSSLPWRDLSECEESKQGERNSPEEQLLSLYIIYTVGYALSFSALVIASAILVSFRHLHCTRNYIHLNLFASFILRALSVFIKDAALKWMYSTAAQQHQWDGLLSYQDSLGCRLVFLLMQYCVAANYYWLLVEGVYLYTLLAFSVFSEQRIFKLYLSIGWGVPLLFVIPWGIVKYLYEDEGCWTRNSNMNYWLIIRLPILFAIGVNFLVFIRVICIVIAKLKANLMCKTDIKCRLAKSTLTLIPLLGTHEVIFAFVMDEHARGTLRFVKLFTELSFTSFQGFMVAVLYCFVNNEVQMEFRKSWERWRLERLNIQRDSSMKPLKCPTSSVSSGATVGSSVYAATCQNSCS
Description: as §2, §3

[1] = steady state, after 3 weeks daily s.c. dosing, Cmax (5 h post dosing), p<0.001
[2] = steady state, after 4 weeks daily s.c. dosing, Cmin (24 h post dosing)
[3] = steady state, after 4 weeks daily s.c. dosing, Cmin (24 h post dosing), p<0.001
[4] = steady state 5 weeks, 3 and 5 nmol/kg, Cmax (5 h post dosing), p<0.001

T1 sequence (P30082 27-485): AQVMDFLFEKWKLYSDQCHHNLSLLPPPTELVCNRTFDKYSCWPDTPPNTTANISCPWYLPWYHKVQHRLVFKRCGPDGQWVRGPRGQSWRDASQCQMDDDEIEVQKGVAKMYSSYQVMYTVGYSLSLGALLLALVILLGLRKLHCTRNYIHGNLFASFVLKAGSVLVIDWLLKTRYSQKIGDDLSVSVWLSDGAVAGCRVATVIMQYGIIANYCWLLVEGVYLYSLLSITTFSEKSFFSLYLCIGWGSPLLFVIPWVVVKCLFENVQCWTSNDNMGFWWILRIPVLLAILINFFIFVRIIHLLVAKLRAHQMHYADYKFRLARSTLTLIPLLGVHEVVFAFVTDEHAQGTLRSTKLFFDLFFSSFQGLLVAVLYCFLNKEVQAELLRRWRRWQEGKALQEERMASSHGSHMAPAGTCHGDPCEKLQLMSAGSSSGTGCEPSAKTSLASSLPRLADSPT
T2 sequence (P47871 26-477): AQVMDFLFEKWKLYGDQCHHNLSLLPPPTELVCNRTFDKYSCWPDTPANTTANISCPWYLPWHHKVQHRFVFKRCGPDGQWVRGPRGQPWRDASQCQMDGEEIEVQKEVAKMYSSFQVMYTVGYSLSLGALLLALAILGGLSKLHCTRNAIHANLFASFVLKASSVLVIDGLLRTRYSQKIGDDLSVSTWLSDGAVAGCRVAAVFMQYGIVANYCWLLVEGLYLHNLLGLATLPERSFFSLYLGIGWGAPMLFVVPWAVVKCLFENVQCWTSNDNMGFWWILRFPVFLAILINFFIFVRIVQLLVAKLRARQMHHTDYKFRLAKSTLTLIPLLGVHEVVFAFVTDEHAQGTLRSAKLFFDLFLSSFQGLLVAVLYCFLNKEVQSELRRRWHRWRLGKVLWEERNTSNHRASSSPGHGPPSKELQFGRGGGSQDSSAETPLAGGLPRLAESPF

| Structure (SMILES) | Glucose tolerance (IPGTT) vs vehicle (DIO mice; [1]) | Basal blood glucose vs vehicle (DIO mice; [2]) | Glucose tolerance (IPGTT) vs vehicle (DIO mice; [3]) | half-life (in vivo) [h] | IC50 (Rat GCGR) [nM] | IC50 (Human GCGR) [nM] | IC50 (Rat GLP-1R) [nM] | Glucose tolerance (IPGTT) vs vehicle (DIO mice; steady state 5 weeks, 3 nmol/kg, Cmin (24 h post dosing), p<0.001) | Glucose tolerance (IPGTT) vs vehicle (DIO mice; steady state 5 weeks, 5 nmol/kg, Cmin (24 h post dosing)) | Basal blood glucose vs vehicle (DIO mice; [4]) | Glucose tolerance (IPGTT) vs vehicle (DIO mice; [4]) | Basal blood glucose vs vehicle (DIO mice; steady state 5 weeks, Cmin (24 h post dosing), p<0.001) |
| --- | --- | --- | --- | --- | --- | --- | --- | --- | --- | --- | --- | --- |
| CC[C@H](C)[C@H](NC(=O)[C@H](Cc1ccccc1)NC(=O)[C@H](CCC(=O)O)NC(=O)[C@H](CCCNC(=N)N)NC(=O)[C@H](C)NC(=O)[C@H](C)NC(=O)[C@H](CCC(N)=O)NC(=O)[C@H](CCC(=O)O)NC(=O)[C@H](CCC(=O)O)NC(=O)[C@H](CC(C)C)NC(=O)[C@H](Cc1ccc(O)cc1)NC(=O)[C@H](CCCCN)NC(=O)[C@H](CO)NC(=O)[C@@H](NC(=O)[C@H](CC(=O)O)NC(=O)[C@H](CO)NC(=O)[C@@H](NC(=O)[C@H](Cc1ccccc1)NC(=O)[C@@H](NC(=O)CNC(=O)[C@H](Cc1c[nH]cn1)NC(=O)C(C)(C)NC(=O)CCc1c[nH]cn1)[C@@H](C)O)[C@@H](C)O)C(C)C)C(=O)N[C@@H](C)C(=O)N[C@@H](Cc1c[nH]c2ccccc12)C(=O)N[C@@H](CC(C)C)C(=O)N[C@@H](CC(C)C)C(=O)N[C@@H](CCCCNC(=O)COCCOCCNC(=O)COCCOCCNC(=O)CC[C@H](NC(=O)CC[C@H](NC(=O)CCCCCCCCCCCCCCCCC(=O)O)C(=O)O)C(=O)O)C(=O)N[C@H](C(N)=O)[C@@H](C)O [NN1359] (Desaminohistidyl-[Aib]HGTFTSDVSKYLEEQAAREFIAWLLK([AEEA-AEEA-γGlu-γGlu-C18 diacid])T-NH2) | significantly improved | significantly improved | significantly improved | 11 | 6.29 | 7.54 | 2.06 |  |  |  |  |  |
| CC(C)C[C@H](NC(=O)[C@H](CC(=O)O)NC(=O)[C@H](CC(C)C)NC(=O)[C@H](Cc1ccc(O)cc1)NC(=O)[C@H](CCCCN)NC(=O)[C@H](CO)NC(=O)[C@H](CC(C)C)NC(=O)[C@H](CC(=O)O)NC(=O)[C@H](CO)NC(=O)[C@@H](NC(=O)[C@H](Cc1ccccc1)NC(=O)[C@@H](NC(=O)CNC(=O)[C@H](CCC(N)=O)NC(=O)C1(NC(=O)[C@@H](N)Cc2c[nH]cn2)CCC1)[C@@H](C)O)[C@@H](C)O)C(=O)N[C@@H](CCCNC(=N)N)C(=O)N[C@@H](CCCNC(=N)N)C(=O)N[C@@H](C)C(=O)N[C@@H](CCCNC(=N)N)C(=O)N[C@@H](CC(=O)O)C(=O)N[C@@H](Cc1ccccc1)C(=O)N[C@H](C(=O)N[C@@H](CCC(N)=O)C(=O)N[C@@H](Cc1c[nH]c2ccccc12)C(=O)N[C@@H](CC(C)C)C(=O)N[C@@H](CC(C)C)C(=O)N[C@@H](CCCCNC(=O)CC[C@H](NC(=O)CC[C@H](NC(=O)COCCOCCNC(=O)COCCOCCNC(=O)CC[C@H](NC(=O)CC[C@H](NC(=O)CCCCCCCCCCCCCCCCC(=O)O)C(=O)O)C(=O)O)C(=O)O)C(=O)O)C(=O)N[C@H](C(N)=O)[C@@H](C)O)C(C)C [NN1151] (H-H[Ac4c]QGTFTSDLSKYLDLRRARDFVQWLLK([γGlu-γGlu-AEEA-AEEA-γGlu-γGlu-C18 diacid])T-NH2) | improved | at the level of vehicle treated animals | significantly impaired | 4 | 0.27 | 0.81 | 1.72 |  |  |  |  |  |
| CC(C)C[C@H](NC(=O)[C@H](Cc1ccc(O)cc1)NC(=O)[C@H](CCCCN)NC(=O)[C@H](CO)NC(=O)[C@H](CC(C)C)NC(=O)[C@H](CC(=O)O)NC(=O)[C@H](CO)NC(=O)[C@@H](NC(=O)[C@H](Cc1ccccc1)NC(=O)[C@@H](NC(=O)CNC(=O)[C@H](CCC(N)=O)NC(=O)C(C)(C)NC(=O)[C@@H](N)Cc1c[nH]cn1)[C@@H](C)O)[C@@H](C)O)C(=O)N[C@@H](CCC(=O)O)C(=O)N[C@@H](CO)C(=O)N[C@@H](CCCCN)C(=O)N[C@@H](CCCNC(=N)N)C(=O)N[C@@H](C)C(=O)N[C@@H](CCCNC(=N)N)C(=O)N[C@@H](CCC(=O)O)C(=O)N[C@@H](Cc1ccccc1)C(=O)N[C@H](C(=O)N[C@@H](CCC(N)=O)C(=O)N[C@@H](Cc1c[nH]c2ccccc12)C(=O)N[C@@H](CC(C)C)C(=O)N[C@@H](CC(C)C)C(=O)N[C@@H](CCCCNC(=O)CC[C@H](NC(=O)CC[C@H](NC(=O)[C@H](CO)NC(=O)[C@H](CCC(=O)O)NC(=O)[C@H](CO)NC(=O)CC[C@H](NC(=O)CC[C@H](NC(=O)CCCCCCCCCCCCCCCCC(=O)O)C(=O)O)C(=O)O)C(=O)O)C(=O)O)C(=O)N[C@H](C(N)=O)[C@@H](C)O)C(C)C [NN1177] (H-H[Aib]QGTFTSDLSKYLESKRAREFVQWLLK([γGlu-γGlu-Ser-Glu-Ser-γGlu-γGlu-C18 diacid])T-NH2) |  |  |  | 8 | 0.3 | 2.54 | 0.17 | impaired | at the level of vehicle | improved | improved | improved |
